Results from publication PMC4823954, “From fighting depression to conquering tumors: a novel tricyclic thiazepine compound as a tubulin polymerization inhibitor” (Cell Death & Disease, 2016).

Legend:
Experiment in all cases: KINOMEscan
Type in all cases: binding
Details in all cases: read-out: % Ctrl
PRKCE = target: T1, PRKCE (Homo sapiens, UniProt Q02156)
T1 construct: purchased DiscoveRx KINOMEscan
Summary of the method: (§1)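 Competition binding panel of 442 non-mutant kinases: test compound at 5 and 10 μM competed with an active-site-directed ligand for 1 h with shaking. Bound kinase was eluted with 0.5 μM ligand and quantified by qPCR; %Ctrl = (compound − positive control)/(DMSO − positive control) × 100, lower meaning tighter binding.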

FES = target: T2, FES (Homo sapiens, UniProt P07332)
T2 construct: purchased DiscoveRx KINOMEscan
Summary of the method: as §1

PIK3CA = target: T3, PIK3CA (Homo sapiens, UniProt P42336)
T3 construct: purchased DiscoveRx KINOMEscan
Summary of the method: as §1

[1] = target: T4, RSK4(Kin.Dom.1-N-terminal) (Homo sapiens, UniProt Q9UK32)
T4 construct: RSK4(Kin.Dom.1-N-terminal); purchased DiscoveRx KINOMEscan
Summary of the method: as §1

MEK3 = target: T5, MEK3 (Homo sapiens, UniProt P46734)
T5 construct: purchased DiscoveRx KINOMEscan
Summary of the method: as §1

LRRK2 = target: T6, LRRK2 (Homo sapiens, UniProt Q5S007)
T6 construct: purchased DiscoveRx KINOMEscan
Summary of the method: as §1

DMPK = target: T7, DMPK (Homo sapiens, UniProt Q09013)
T7 construct: purchased DiscoveRx KINOMEscan
T7 sequence (Q09013 whole entry): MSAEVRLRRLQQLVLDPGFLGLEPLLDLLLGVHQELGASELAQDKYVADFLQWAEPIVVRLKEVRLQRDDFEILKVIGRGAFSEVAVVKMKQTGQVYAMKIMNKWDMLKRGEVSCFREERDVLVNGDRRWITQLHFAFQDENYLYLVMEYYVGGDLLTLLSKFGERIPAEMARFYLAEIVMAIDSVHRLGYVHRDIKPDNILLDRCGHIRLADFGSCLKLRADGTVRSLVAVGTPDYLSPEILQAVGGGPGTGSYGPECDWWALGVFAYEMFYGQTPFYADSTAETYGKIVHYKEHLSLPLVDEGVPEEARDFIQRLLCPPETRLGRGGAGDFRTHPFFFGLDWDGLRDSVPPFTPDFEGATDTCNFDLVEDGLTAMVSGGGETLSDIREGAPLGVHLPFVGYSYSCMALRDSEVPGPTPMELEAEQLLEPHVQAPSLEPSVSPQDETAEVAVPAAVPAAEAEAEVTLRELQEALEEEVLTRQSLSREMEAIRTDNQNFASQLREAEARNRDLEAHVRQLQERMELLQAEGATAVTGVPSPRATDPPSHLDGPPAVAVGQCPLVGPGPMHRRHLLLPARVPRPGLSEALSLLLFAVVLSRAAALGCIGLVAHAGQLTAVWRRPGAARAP
Summary of the method: as §1

ERK8 = target: T8, ERK8 (Homo sapiens, UniProt Q8TD08)
T8 construct: purchased DiscoveRx KINOMEscan
T8 sequence (Q8TD08 whole entry): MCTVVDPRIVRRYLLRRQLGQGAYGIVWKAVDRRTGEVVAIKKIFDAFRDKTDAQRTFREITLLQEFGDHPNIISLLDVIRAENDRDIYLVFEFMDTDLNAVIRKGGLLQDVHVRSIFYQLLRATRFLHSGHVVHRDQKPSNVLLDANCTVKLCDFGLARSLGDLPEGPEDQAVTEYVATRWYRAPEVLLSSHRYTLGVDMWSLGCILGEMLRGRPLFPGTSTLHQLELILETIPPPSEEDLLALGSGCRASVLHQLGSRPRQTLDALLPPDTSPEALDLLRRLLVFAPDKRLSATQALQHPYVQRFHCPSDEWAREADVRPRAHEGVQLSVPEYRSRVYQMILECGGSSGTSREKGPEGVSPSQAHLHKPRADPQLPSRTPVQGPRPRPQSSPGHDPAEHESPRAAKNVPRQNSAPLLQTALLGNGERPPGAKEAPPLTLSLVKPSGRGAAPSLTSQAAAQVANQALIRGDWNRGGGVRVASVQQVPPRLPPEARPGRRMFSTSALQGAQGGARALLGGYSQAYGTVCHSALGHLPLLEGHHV
Summary of the method: as §1

ULK1 = target: T9, ULK1 (Homo sapiens, UniProt O75385)
T9 construct: purchased DiscoveRx KINOMEscan
Summary of the method: as §1

SRC = target: T10, SRC (Homo sapiens, UniProt P12931)
T10 construct: purchased DiscoveRx KINOMEscan
Summary of the method: as §1

MLK2 = target: T11, MLK2 (Homo sapiens, UniProt Q02779)
T11 construct: purchased DiscoveRx KINOMEscan
Summary of the method: as §1

INSRR = target: T12, INSRR (Homo sapiens, UniProt P14616)
T12 construct: purchased DiscoveRx KINOMEscan
Summary of the method: as §1

[2] = target: T13, TYK2(JH1domain-catalytic) (Homo sapiens, UniProt P29597)
T13 construct: TYK2(JH1domain-catalytic); purchased DiscoveRx KINOMEscan
Summary of the method: as §1

PIK4CB = target: T14, PIK4CB (Homo sapiens, UniProt Q9UBF8)
T14 construct: purchased DiscoveRx KINOMEscan
Summary of the method: as §1

DDR2 = target: T15, DDR2 (Homo sapiens, UniProt Q16832)
T15 construct: purchased DiscoveRx KINOMEscan
T15 sequence (Q16832 22-855): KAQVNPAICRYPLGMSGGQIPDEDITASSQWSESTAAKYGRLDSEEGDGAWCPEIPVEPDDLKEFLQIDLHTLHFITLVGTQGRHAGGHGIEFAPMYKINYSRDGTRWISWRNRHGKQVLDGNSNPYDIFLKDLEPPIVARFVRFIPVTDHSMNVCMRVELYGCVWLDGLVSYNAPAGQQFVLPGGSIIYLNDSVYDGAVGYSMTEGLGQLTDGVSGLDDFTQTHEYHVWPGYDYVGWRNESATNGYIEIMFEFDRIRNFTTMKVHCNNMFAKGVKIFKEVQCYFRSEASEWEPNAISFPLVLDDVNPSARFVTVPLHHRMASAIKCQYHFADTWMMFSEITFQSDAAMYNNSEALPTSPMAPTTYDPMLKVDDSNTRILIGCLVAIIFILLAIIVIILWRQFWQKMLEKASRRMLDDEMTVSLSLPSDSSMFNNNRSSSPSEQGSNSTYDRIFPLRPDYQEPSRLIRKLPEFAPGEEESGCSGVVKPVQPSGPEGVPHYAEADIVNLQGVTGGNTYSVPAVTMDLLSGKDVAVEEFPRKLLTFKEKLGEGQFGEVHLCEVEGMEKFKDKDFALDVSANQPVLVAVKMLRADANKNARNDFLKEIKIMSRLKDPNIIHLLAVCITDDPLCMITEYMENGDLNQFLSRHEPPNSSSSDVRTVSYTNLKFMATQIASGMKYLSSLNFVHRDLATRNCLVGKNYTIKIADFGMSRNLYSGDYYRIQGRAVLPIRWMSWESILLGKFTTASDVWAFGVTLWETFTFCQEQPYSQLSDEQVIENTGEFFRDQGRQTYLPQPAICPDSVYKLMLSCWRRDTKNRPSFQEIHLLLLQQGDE
Summary of the method: as §1

[3] = target: T16, RSK1(Kin.Dom.1-N-terminal) (Homo sapiens, UniProt Q15418)
T16 construct: RSK1(Kin.Dom.1-N-terminal); purchased DiscoveRx KINOMEscan
Summary of the method: as §1

PKN1 = target: T17, PKN1 (Homo sapiens, UniProt Q16512)
T17 construct: purchased DiscoveRx KINOMEscan
Summary of the method: as §1

HUNK = target: T18, HUNK (Homo sapiens, UniProt P57058)
T18 construct: purchased DiscoveRx KINOMEscan
Summary of the method: as §1

CDC2L5 = target: T19, CDC2L5 (Homo sapiens, UniProt Q14004)
T19 construct: purchased DiscoveRx KINOMEscan
Summary of the method: as §1

FER = target: T20, FER (Homo sapiens, UniProt P16591)
T20 construct: purchased DiscoveRx KINOMEscan
T20 sequence (P16591 whole entry): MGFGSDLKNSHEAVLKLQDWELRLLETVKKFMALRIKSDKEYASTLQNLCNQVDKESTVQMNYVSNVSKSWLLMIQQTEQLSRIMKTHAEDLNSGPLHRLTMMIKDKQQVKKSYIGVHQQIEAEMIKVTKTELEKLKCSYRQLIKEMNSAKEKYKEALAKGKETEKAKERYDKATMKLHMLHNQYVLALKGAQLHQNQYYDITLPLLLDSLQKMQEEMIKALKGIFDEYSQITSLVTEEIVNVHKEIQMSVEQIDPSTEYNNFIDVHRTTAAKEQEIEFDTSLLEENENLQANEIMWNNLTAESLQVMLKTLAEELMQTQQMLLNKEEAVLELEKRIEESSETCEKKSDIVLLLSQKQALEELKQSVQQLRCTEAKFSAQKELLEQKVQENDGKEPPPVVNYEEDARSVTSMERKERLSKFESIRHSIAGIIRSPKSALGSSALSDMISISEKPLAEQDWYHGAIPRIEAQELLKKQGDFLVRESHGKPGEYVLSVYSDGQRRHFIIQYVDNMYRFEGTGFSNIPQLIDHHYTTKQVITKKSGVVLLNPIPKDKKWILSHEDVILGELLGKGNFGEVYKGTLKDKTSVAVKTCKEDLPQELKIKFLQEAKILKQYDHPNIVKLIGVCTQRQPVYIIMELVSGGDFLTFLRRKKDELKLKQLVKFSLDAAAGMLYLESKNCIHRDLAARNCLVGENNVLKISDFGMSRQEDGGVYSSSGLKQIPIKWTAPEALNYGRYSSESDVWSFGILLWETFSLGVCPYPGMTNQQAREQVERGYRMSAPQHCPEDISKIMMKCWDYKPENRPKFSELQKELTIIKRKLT
Summary of the method: as §1

GAK = target: T21, GAK (Homo sapiens, UniProt O14976)
T21 construct: purchased DiscoveRx KINOMEscan
Summary of the method: as §1

CDK4-cyclinD1 = target: T22, CDK4-cyclinD1 (Homo sapiens, UniProt P11802)
T22 construct: purchased DiscoveRx KINOMEscan
Summary of the method: as §1

CASK = target: T23, CASK (Homo sapiens, UniProt O14936)
T23 construct: purchased DiscoveRx KINOMEscan
T23 sequence (O14936 whole entry): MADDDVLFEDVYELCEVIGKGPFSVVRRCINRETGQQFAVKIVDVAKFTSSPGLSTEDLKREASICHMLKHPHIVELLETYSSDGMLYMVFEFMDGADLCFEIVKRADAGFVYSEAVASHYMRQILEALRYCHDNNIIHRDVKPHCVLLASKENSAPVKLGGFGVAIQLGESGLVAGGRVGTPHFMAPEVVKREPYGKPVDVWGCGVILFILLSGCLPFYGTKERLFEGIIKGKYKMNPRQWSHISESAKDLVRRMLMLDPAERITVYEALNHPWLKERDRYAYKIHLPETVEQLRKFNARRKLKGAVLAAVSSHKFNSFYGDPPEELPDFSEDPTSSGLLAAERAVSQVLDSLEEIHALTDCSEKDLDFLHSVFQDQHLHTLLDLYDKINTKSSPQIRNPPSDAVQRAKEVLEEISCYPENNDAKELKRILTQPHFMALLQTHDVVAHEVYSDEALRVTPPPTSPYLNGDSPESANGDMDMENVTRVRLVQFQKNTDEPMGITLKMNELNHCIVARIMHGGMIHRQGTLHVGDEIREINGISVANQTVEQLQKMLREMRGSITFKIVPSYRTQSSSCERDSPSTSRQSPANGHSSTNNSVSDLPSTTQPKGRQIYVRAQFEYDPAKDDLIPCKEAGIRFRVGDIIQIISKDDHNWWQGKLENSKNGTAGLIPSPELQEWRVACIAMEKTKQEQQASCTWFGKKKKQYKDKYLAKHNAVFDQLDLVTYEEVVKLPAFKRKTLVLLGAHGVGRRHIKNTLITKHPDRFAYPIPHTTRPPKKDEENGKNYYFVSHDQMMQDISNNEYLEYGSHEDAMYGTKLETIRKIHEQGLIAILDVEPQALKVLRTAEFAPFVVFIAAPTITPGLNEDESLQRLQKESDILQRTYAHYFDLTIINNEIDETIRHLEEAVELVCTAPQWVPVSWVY
Summary of the method: as §1

NDR2 = target: T24, NDR2 (Homo sapiens, UniProt Q9Y2H1)
T24 construct: purchased DiscoveRx KINOMEscan
T24 sequence (Q9Y2H1 whole entry): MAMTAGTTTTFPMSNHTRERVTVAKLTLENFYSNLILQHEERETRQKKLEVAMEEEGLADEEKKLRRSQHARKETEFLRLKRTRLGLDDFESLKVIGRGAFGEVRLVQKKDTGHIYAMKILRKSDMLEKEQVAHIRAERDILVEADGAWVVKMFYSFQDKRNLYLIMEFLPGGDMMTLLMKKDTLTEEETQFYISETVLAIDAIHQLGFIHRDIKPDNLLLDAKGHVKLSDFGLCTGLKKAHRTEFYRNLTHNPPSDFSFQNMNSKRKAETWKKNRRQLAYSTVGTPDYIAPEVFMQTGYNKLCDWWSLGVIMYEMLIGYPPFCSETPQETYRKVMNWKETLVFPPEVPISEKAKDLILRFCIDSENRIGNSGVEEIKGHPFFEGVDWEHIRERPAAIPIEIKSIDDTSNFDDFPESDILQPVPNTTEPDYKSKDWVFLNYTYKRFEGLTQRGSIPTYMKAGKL
Summary of the method: as §1

PIP5K1C = target: T25, PIP5K1C (Homo sapiens, UniProt O60331)
T25 construct: purchased DiscoveRx KINOMEscan
Summary of the method: as §1

STK16 = target: T26, STK16 (Homo sapiens, UniProt O75716)
T26 construct: purchased DiscoveRx KINOMEscan
Summary of the method: as §1

[4] = target: T27, RSK2(Kin.Dom.1-N-terminal) (Homo sapiens, UniProt P51812)
T27 construct: RSK2(Kin.Dom.1-N-terminal); purchased DiscoveRx KINOMEscan
T27 sequence (P51812 1-397 limits assumed): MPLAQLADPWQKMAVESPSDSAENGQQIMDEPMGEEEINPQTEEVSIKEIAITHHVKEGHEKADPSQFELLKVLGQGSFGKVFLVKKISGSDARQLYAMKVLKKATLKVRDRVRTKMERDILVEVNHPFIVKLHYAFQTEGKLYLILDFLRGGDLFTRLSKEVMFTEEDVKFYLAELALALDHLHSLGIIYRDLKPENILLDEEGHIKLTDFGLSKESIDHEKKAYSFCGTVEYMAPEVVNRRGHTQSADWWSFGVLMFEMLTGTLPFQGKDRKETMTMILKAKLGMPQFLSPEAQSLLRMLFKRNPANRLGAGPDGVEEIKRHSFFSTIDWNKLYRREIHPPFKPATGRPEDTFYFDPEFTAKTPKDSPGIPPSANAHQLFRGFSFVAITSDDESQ
Summary of the method: as §1

PIP5K2B = target: T28, PIP5K2B (Homo sapiens, UniProt P78356)
T28 construct: purchased DiscoveRx KINOMEscan
T28 sequence (P78356 whole entry): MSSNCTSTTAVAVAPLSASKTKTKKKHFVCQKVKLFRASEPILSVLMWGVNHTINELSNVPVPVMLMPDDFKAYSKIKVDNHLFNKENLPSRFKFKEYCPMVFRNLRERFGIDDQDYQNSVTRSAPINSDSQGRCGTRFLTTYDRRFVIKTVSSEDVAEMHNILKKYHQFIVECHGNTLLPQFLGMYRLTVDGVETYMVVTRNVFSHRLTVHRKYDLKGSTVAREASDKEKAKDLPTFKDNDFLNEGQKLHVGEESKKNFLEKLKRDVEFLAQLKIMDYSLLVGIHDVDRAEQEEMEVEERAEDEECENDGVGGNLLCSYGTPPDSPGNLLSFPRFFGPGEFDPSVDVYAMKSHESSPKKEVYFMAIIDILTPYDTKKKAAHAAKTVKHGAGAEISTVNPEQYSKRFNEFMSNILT
Summary of the method: as §1

DAPK3 = target: T29, DAPK3 (Homo sapiens, UniProt O43293)
T29 construct: purchased DiscoveRx KINOMEscan
Summary of the method: as §1

Structure (SMILES): Cc1ccc(C2=Nc3cccnc3S(=O)(=O)c3ccccc32)cc1 [TBPT, 6-(p-tolyl)benzo[f] pyrido[2,3-b][1,4] thiazepine 11,11-dioxide]
- remaining binding at 5 µM (PRKCE; 5 μM): 100%
- remaining binding at 10 µM (PRKCE; 10 μM): 100%
- remaining binding at 5 µM (FES; 5 μM): 100%
- remaining binding at 10 µM (FES; 10 μM): 98%
- remaining binding at 5 µM (PIK3CA; 5 μM): 100%
- remaining binding at 10 µM (PIK3CA; 10 μM): 82%
- remaining binding at 5 µM ([1]; 5 μM): 83%
- remaining binding at 10 µM ([1]; 10 μM): 94%
- remaining binding at 5 µM (MEK3; 5 μM): 100%
- remaining binding at 10 µM (MEK3; 10 μM): 100%
- remaining binding at 5 µM (LRRK2; 5 μM): 94%
- remaining binding at 10 µM (LRRK2; 10 μM): 100%
- remaining binding at 5 µM (DMPK; 5 μM): 88%
- remaining binding at 10 µM (DMPK; 10 μM): 100%
- remaining binding at 5 µM (ERK8; 5 μM): 94%
- remaining binding at 10 µM (ERK8; 10 μM): 100%
- remaining binding at 5 µM (ULK1; 5 μM): 100%
- remaining binding at 10 µM (ULK1; 10 μM): 83%
- remaining binding at 5 µM (SRC; 5 μM): 87%
- remaining binding at 10 µM (SRC; 10 μM): 100%
- remaining binding at 5 µM (MLK2; 5 μM): 70%
- remaining binding at 10 µM (MLK2; 10 μM): 100%
- remaining binding at 5 µM (INSRR; 5 μM): 100%
- remaining binding at 10 µM (INSRR; 10 μM): 100%
- remaining binding at 5 µM ([2]; 5 μM): 69%
- remaining binding at 10 µM ([2]; 10 μM): 100%
- remaining binding at 5 µM (PIK4CB; 5 μM): 100%
- remaining binding at 10 µM (PIK4CB; 10 μM): 93%
- remaining binding at 5 µM (DDR2; 5 μM): 100%
- remaining binding at 10 µM (DDR2; 10 μM): 99%
- remaining binding at 5 µM ([3]; 5 μM): 100%
- remaining binding at 10 µM ([3]; 10 μM): 74%
- remaining binding at 5 µM (PKN1; 5 μM): 90%
- remaining binding at 10 µM (PKN1; 10 μM): 100%
- remaining binding at 5 µM (HUNK; 5 μM): 89%
- remaining binding at 10 µM (HUNK; 10 μM): 84%
- remaining binding at 5 µM (CDC2L5; 5 μM): 100%
- remaining binding at 10 µM (CDC2L5; 10 μM): 97%
- remaining binding at 5 µM (FER; 5 μM): 93%
- remaining binding at 10 µM (FER; 10 μM): 100%
- remaining binding at 5 µM (GAK; 5 μM): 100%
- remaining binding at 10 µM (GAK; 10 μM): 90%
- remaining binding at 5 µM (CDK4-cyclinD1; 5 μM): 100%
- remaining binding at 10 µM (CDK4-cyclinD1; 10 μM): 79%
- remaining binding at 5 µM (CASK; 5 μM): 100%
- remaining binding at 10 µM (CASK; 10 μM): 100%
- remaining binding at 5 µM (NDR2; 5 μM): 100%
- remaining binding at 10 µM (NDR2; 10 μM): 100%
- remaining binding at 5 µM (PIP5K1C; 5 μM): 100%
- remaining binding at 10 µM (PIP5K1C; 10 μM): 94%
- remaining binding at 5 µM (STK16; 5 μM): 99%
- remaining binding at 10 µM (STK16; 10 μM): 91%
- remaining binding at 5 µM ([4]; 5 μM): 98%
- remaining binding at 10 µM ([4]; 10 μM): 100%
- remaining binding at 5 µM (PIP5K2B; 5 μM): 100%
- remaining binding at 10 µM (PIP5K2B; 10 μM): 100%
- remaining binding at 5 µM (DAPK3; 5 μM): 100%
- remaining binding at 10 µM (DAPK3; 10 μM): 100%
